{
  "source": "patent US20220064238A1",
  "about": "“Methods And Compositions For Modifying Transcription Factor Activity by Targeting The Human Mediator Complex Using Cell Penetrating Memetic Peptides And Methods of Treating Cancer Using The Same” (The Regents of the University of Colorado, a body corporate, priority 2020, published 2022)",
  "key": {"[1]": {"system": "pol II occupancy at the p21 locus", "test": "ChIP of RNA polymerase II occupancy at CDKN1A (p21)", "assay_type": "cell-based", "settings": "3 h post-Nutlin, Ser5-phosphorylated pol II ChIP", "text": "FIGS. 13A-B. Summary of ChIP experiments, showing that RNA polymerase II occupancy at the p53 target gene CDKN1A (p21) is reduced in cells treated with the bivalent peptide (peptide). A) Time course following Nutlin induction, to determine ideal time point to probe pol II occupancy at the p21 locus. […] However, pol II occupancy is reduced in cells treated with the bivalent peptide. […] Pol II phosphorylated at serine-5 of its C-terminal domain was used for ChIP analysis, because this is a proxy for initiating pol II at gene promoters (start sites). Data represent biological triplicates. Similar results were observed genome-wide, using ChIP-seq, although the timing of induction across p53 target genes will vary (data not shown)."}, "[2]": {"system": "p53-target genes in HCT116 cells", "test": "RT-qPCR of p53 target genes in HCT116 cells", "assay_type": "cell-based, human", "settings": "HCT116, 3-hour Nutlin treatment", "method": "Experimental time frame for RNA-Seq experiments: In a series of experiments in SJSA cells, we initially tested whether the bivalent peptide could cause a phenotypic change. […] We next determined that a 6-hour Nutlin treatment time was the shortest that would still trigger significant SJSA cell death within 24-48 hours. However, we obtained similar results with 6-hour (or 12-hour) Nutlin treatment times (±bivalent peptide). We then tested the prospect of RNA-Seq experiments, in hopes that gene expression changes and shorter time frames would allow an assessment of bivalent peptide effects. Here, we used HCT116 cells, which show strong transcriptional response to Nutlin (Allen et al., 2014). For RNA-Seq experiments, we needed a time frame long enough to allow accumulation of p53 target gene mRNAs but short enough to enable maximum activity of the bivalent peptide (e.g. prior to its secretion, export, and/or degradation). Using RT-qPCR assays, we confirmed that a 3-hour Nutlin treatment was a minimum amount of time to reliably detect induction of p53 target genes. […] RNA-Seq data have been uploaded on GEO: GSE135870."}, "HCT116 cells": {"system": "HCT116 cells", "test": "RNA-Seq in HCT116 cells, non-p53 genes / genome-wide transcription", "assay_type": "cell-based, human", "settings": "DMSO control cells, no Nutlin", "text": "An expectation of our experimental strategy was that the bivalent peptide, which was designed based upon p53AD structure, would selectively block p53 function. […] RNA-Seq experiments in HCT116 cells represented a more rigorous test for selectivity. HCT116 cells express hundreds of sequence-specific, DNA-binding TFs, including high level expression of TFs that define the cell lineage. For HCT116 cells, these TFs include SREBF1, ELF3, JUNB, NR2F1, and MYC. To assess the general impact of the bivalent peptide on pol II transcription, we compared RNA-Seq data from DMSO control cells (i.e. no Nutlin treatment) in the presence/absence of bivalent peptide.\nElectroporation of bivalent peptide into HCT116 cells (RNA-Seq experiment 1): Two 6-well plates (HCT116 cells) were grown to about 80% confluency. Cells were then trypsinized, washed with PBS, and resuspended in 150 μL Neon Buffer R. The cells were then split into two groups: No peptide and 10 μM peptide. The cells were then drawn into a 10 μL Neon pipet tip, electroporated and ejected into 2 mL of McCoy's 5A media without antibiotic. For each experiment, two cell electroporation aliquots were added to media containing either 0.1% DMSO (control) or 10 μM Nutlin-3a (in DMSO, to a final concentration of 0.1%). […]"}},
  "note": "Bridge positions count the residues as written; N and C are the ends. Square brackets hold non-standard residues; d marks the D form. Peptide text beside a SMILES is read from it. PEG6 = NCCOCCOCCOCCOCCOCCOCCC(=O)O; R8 = C=CCCCCCC[C@@](C)(N)C(=O)O; S5 = C=CCCC[C@](C)(N)C(=O)O",
  "data": [
    {"molecule": "CC[C@H](C)[C@H](NC(=O)[C@H](CC(=O)O)NC(=O)[C@H](CC(=O)O)NC(=O)[C@@H]1CCCN1C(=O)[C@H](CO)NC(=O)[C@H](CC(C)C)NC(=O)CCOCCOCCOCCOCCOCCOCCNC(=O)[C@H](CCCNC(=N)N)NC(=O)[C@H](CCCNC(=N)N)NC(=O)[C@]1(C)CCCC=CCCCCCC[C@@](C)(NC(=O)[C@H](Cc2ccccc2)NC(=O)[C@H](CCCNC(=N)N)NC(=O)[C@H](CCC(=O)O)NC(=O)[C@H](CCC(N)=O)NC(=O)[C@H](CO)NC(=O)[C@H](CCCNC(=N)N)NC(C)=O)C(=O)N[C@@H](CC(=O)O)C(=O)N[C@@H](CC(C)C)C(=O)N[C@@H](Cc2c[nH]c3ccccc23)C(=O)N[C@@H](CCCCN)C(=O)N[C@@H](CCCNC(=N)N)C(=O)N[C@@H](CC(C)C)C(=O)N1)C(=O)N[C@@H](CCC(=O)O)C(=O)N[C@@H](CCC(N)=O)C(=O)N[C@@H](Cc1c[nH]c2ccccc12)C(=O)N[C@@H](Cc1ccccc1)C(=O)N[C@H](C(=O)N[C@@H](CCC(=O)O)C(=O)N[C@@H](CC(=O)O)C(N)=O)[C@@H](C)O", "note": "[bivalent peptide] (Ac-RSQERF[R8]DLWKRL[S5]RR[PEG6]LSPDDIEQWFTED-NH2; staple 7-14; N-terminus assumed)", "values": [
      {"measurement": "pol II occupancy at the p21 locus in peptide-treated cells", "setting": "[1]", "result": "reduced"},
      {"measurement": "activation of p53-target genes by RT-qPCR", "setting": "[2]", "result": "blocking activation of p53-target genes"},
      {"measurement": "effect on pol II transcription genome-wide", "setting": "HCT116 cells", "result": "minor effect on pol II transcription"}
    ]}
  ]
}
